In PubChem BioAssay (NCI):
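Cells were grown in 96-well plates and exposed to each compound for 48 hours at five concentrations; endpoints were interpolated linearly between bracketing concentrations, or set to the highest concentration if not reached. GI50 is the concentration that inhibits growth by half. TGI: concentration producing complete growth inhibition.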

How the values were obtained:
Assay in all cases: NCI anticancer screen, dose series, 48 h
[1] = system: NCI-H23 lung
[2] = system: HCT-116 colon
[3] = system: MDA-N
[4] = system: OVCAR-5 ovarian
[5] = system: SK-MEL-28 melanoma
[6] = system: MDA-MB-231 breast
[7] = system: COLO 205 colon
[8] = system: DU-145 prostate
[9] = system: MCF7 breast
[10] = system: M14 melanoma

Compound	TGI [1] [µM]	TGI [2] [µM]	TGI [3] [µM]	TGI [4] [µM]	TGI [5] [µM]	TGI [6] [µM]	TGI [7] [µM]	TGI [8] [µM]	TGI [9] [µM]	TGI [10] [µM]	GI50 [2] [µM]	GI50 [4] [µM]	GI50 [5] [µM]	GI50 [6] [µM]	GI50 [7] [µM]	GI50 [8] [µM]	GI50 [1] [µM]	GI50 [9] [µM]	GI50 [10] [µM]
COc1cc(-c2nc3nc(N4CCN(C)CC4)ccc3[nH]2)c(OC)c2[nH]c(COC(C)=O)nc12	> 100	58.6	> 100	> 100	> 100	63.6	> 100	> 100	43.9	34.4	–	–	–	–	–	–	–	–	–
C/C(N=Nc1nc2ccccc2o1)=C1/C=CC=CN1O	> 100	> 100	> 100	28.1	> 100	> 100	> 100	> 100	81.2	> 100	–	–	–	–	–	–	–	–	–
O=C1C[C@H](c2ccccc2)C2(C(=O)c3ccccc3C2=O)[C@H](c2ccccc2)C1	> 100	> 100	> 100	> 100	> 100	80.2	> 100	> 100	–	> 100	–	–	–	–	–	–	–	–	–
O=C(O)/C=C/C(=O)O	> 100	> 100	> 100	> 100	> 100	> 100	> 100	> 100	> 100	> 100	–	–	–	–	–	–	–	–	–
CC(=O)Nc1ccc(-c2nnc(SCC(=O)Nc3ccccc3C)o2)cc1	> 100	29.4	–	> 100	> 100	–	> 100	–	–	> 100	–	–	–	–	–	–	–	–	–
CC(=O)NC1=CC(=O)c2cc(C)cc(O)c2C1=O	5.21	16.3	3.02	26.1	1.54	24.7	13.3	14.1	7.8	3.53	–	–	–	–	–	–	–	–	–
COc1cc(C2S/C(=C/c3ccccc3)C(=O)N2c2cccc([N+](=O)[O-])c2)cc(OC)c1OC (configuration not stated)	> 100	> 100	55.7	> 100	> 100	> 100	> 100	–	> 100	> 100	–	–	–	–	–	–	–	–	–
C#CCOC(=O)C(N)CCCN=C(N)N (configuration not stated)	> 100	> 100	> 100	> 100	> 100	> 100	> 100	> 100	> 100	> 100	–	–	–	–	–	–	–	–	–
CC(C)C(C/C=C1\CC(CO)(COC(=O)CC(C(C)C)C(C)C)OC1=O)C(C)C (configuration not stated)	29	27.8	18	26.9	29.3	27.2	9.75	22	31.3	24.6	–	–	–	–	–	–	–	–	–
CC(C)(C)OC(=O)NCC(=O)N1CCCN(C(=O)CNC(=O)OC(C)(C)C)CC1	> 100	> 100	> 100	> 100	> 100	> 100	> 100	> 100	> 100	> 100	–	–	–	–	–	–	–	–	–
Nc1nc2cc(CNc3ccc(C(=O)NC(CCC(=O)O)C(=O)O)cc3)ccc2nc1-c1ccccc1 (configuration not stated)	> 10	> 10	> 10	> 10	> 10	> 10	> 10	> 10	> 10	> 10	–	–	–	–	–	–	–	–	–
COC(=O)n1c(CBr)c(Br)c2ccccc21	71	> 100	–	79.2	> 100	–	> 100	–	–	> 100	–	–	–	–	–	–	–	–	–
COc1ccc(/C=N/n2c(Cc3ccc(Cl)cc3)n[nH]c2=O)c(OC)c1	> 100	> 100	> 100	> 100	> 100	> 100	> 100	> 100	> 100	> 100	–	–	–	–	–	–	–	–	–
COc1ccc(C2c3cc4c(cc3OC(N3CCCCC3)C2C)OCO4)cc1 (configuration not stated)	> 100	> 100	> 100	> 100	> 100	–	> 100	> 100	> 100	> 100	–	–	–	–	–	–	–	–	–
Cc1cc([N+](=O)[O-])ccc1N=NC(=O)NNc1ccc([N+](=O)[O-])cc1C	41.8	28.2	29.9	31.8	29.9	–	–	30.1	20.5	28.3	–	–	–	–	–	–	–	–	–
COc1nc2[nH]ccc2c(=O)n1C	> 100	> 100	–	> 100	> 100	–	> 100	–	–	> 100	–	–	–	–	–	–	–	–	–
CN(C)CCOC1(CC2CCCCC2)CCC(C(C)(C)C)CC1 (configuration not stated)	21.8	14.7	13.1	17.5	12.3	13.5	6.13	19.6	7.73	4.61	–	–	–	–	–	–	–	–	–
CC(C)(C)c1cc(C2COC(=O)COCC(=O)OCCOCCOCCO2)cc(C(C)(C)C)c1O (configuration not stated)	> 100	> 100	38.5	> 100	38.9	> 100	> 100	41.7	> 100	41.3	–	–	–	–	–	–	–	–	–
CCOC(=O)C(NCc1cccc(C(F)(F)F)c1)(NC(=O)c1ccccc1)C(F)(F)F (configuration not stated)	70.8	> 100	> 100	> 100	63.6	29.9	29.9	> 100	> 100	> 100	–	–	–	–	–	–	–	–	–
c1ccc(Nc2nnc(-c3nsc4ccccc34)o2)cc1	> 100	> 100	–	> 100	> 100	–	> 100	–	–	> 100	–	–	–	–	–	–	–	–	–
Cc1cccc2c1C/C(=C\c1cccc(C)c1C(=O)O)C2=O	> 100	> 100	–	> 100	> 100	–	> 100	> 100	> 100	> 100	–	–	–	–	–	–	–	–	–
O=c1[nH]c2ccccc2c2oc(-c3ccccc3)nc12	> 100	69.3	46.6	> 100	–	38.1	37.6	–	> 100	> 100	–	–	–	–	–	–	–	–	–
O=C(/C=C/c1ccccc1O)/C=C/c1ccccc1O	3.84	1.23	3.93	3.14	3.67	5.29	3.4	3.2	–	3.55	–	–	–	–	–	–	–	–	–

Compound	TGI [1] [µM]	TGI [2] [µM]	TGI [3] [µM]	TGI [4] [µM]	TGI [5] [µM]	TGI [6] [µM]	TGI [7] [µM]	TGI [8] [µM]	TGI [9] [µM]	TGI [10] [µM]	GI50 [2] [µM]	GI50 [4] [µM]	GI50 [5] [µM]	GI50 [6] [µM]	GI50 [7] [µM]	GI50 [8] [µM]	GI50 [1] [µM]	GI50 [9] [µM]	GI50 [10] [µM]
CC(=O)OCC1OC(c2nnc(C)o2)=CC(OC(C)=O)C1OC(C)=O (configuration not stated)	> 100	> 100	> 100	> 100	> 100	> 100	> 100	> 100	> 100	–	–	–	–	–	–	–	–	–	–
COC1/C=C/C(C)C(C(C)C(OC)C(C)CCC(=O)C(C)C(C/C=C/N(C)C=O)OC)OC(=O)/C=C/C=C(\C)CC(OC)C(OC)C2=CC(=O)O[C@@H](C(C)C(OC)CC(OC)/C=C/C(C)C(O)C1)[C@H]2O (some centres not stated)	0.373	0.207	–	0.623	0.878	0.247	–	–	0.977	0.309	–	–	–	–	–	–	–	–	–
O=C(c1ccccc1)N1C(=S)N(c2ccc([N+](=O)[O-])cc2)C(=Nc2ccccc2)C1=Nc1ccccc1	> 100	–	> 100	> 100	> 100	> 100	> 100	> 100	> 100	> 100	–	–	–	–	–	–	–	–	–
CC(C)CCC[C@@H](C)[C@H]1CCC2C3=CCC4C(=O)C=CC(=O)C4C3CC[C@@]21C (some centres not stated)	–	1.03	–	> 100	> 100	1.32	0.183	> 100	–	–	0.0551	0.212	0.449	0.331	0.0545	0.507	–	–	–
OCC(O)C(O)C(O)C(/C=N\Nc1ncnc2ccc(Br)cc12)=N/Nc1ncnc2ccc(Br)cc12 (configuration not stated)	–	> 100	> 100	> 100	> 100	> 100	> 100	> 100	> 100	71.2	–	–	–	–	–	–	–	–	–
CCCCCCOc1ccc(NC2=C(Cl)C(=O)c3ncccc3C2=O)cc1	4.34	2.38	2.97	> 10	3.04	–	–	2.83	2.63	4.04	–	–	–	–	–	–	–	–	–
CN(c1ccccc1Cl)S(=O)(=O)c1ccccc1[N+](=O)[O-]	> 100	> 100	> 100	> 100	> 100	> 100	> 100	> 100	–	46.3	–	–	–	–	–	–	–	–	–
COc1ccc2c(c1)CC[C@@H]1[C@@H]2CC[C@]2(C)C(=O)/C(=C/c3cc(OC)c(OC)c(OC)c3)C[C@@H]12	53.3	> 100	–	62.4	–	42	> 100	> 100	> 100	41.2	–	–	–	–	–	–	–	–	–
N#Cc1c(N2CCN(c3ccc([N+](=O)[O-])cc3)CC2)[n+](=O)c2ccc(Cl)cc2n1[O-]	3.96	–	> 26.1	29.1	> 39.2	–	–	6.7	> 33.3	> 23.4	–	–	–	–	–	–	–	–	–
c1ccc(C2=C(c3ccccc3)P(c3ccccc3)C2)cc1 (configuration not stated)	–	> 100	> 100	> 100	> 100	> 100	> 100	> 100	> 100	> 100	–	–	–	–	–	–	–	–	–
COc1ccc2c(c1)-c1oc3ccccc3c(=O)c1CO2	> 100	> 100	78.1	> 100	–	90.8	> 100	> 100	> 100	> 100	–	–	–	–	–	–	–	–	–
O=C(C#Cc1cn(C2CC(O)C(CO)O2)c(=O)[nH]c1=O)c1ccccc1 (configuration not stated)	> 100	> 100	> 100	–	> 100	> 100	65.7	> 100	> 100	> 100	–	–	–	–	–	–	–	–	–
COC(=O)c1ccccc1CC(Cc1ccccc1)C(=O)OC (configuration not stated)	> 100	> 100	–	> 100	> 100	> 100	> 100	> 100	> 100	> 100	–	–	–	–	–	–	–	–	–
Clc1ncnc2c1ncn2CCCCCCCCCCCCn1cnc2c(Cl)ncnc21	10.8	24.8	–	72.7	6.82	–	29.1	–	–	29.6	–	–	–	–	–	–	–	–	–
Nc1nc(SCCC/C=C/I)nc2c1ncn2C1OC(CO)C(O)C1O (configuration not stated)	> 202	> 202	–	> 202	> 202	–	> 202	–	–	> 202	–	–	–	–	–	–	–	–	–
CCOC12SC(=Nc3ccc(C)cc3)NN1C(=S)N(C)N=C2C (configuration not stated)	> 100	> 100	–	> 100	> 100	–	> 100	–	–	> 100	–	–	–	–	–	–	–	–	–
COC(=O)CCN(CCC(=O)OC)C1CC1	> 100	> 100	–	> 100	> 100	> 100	> 100	> 100	> 100	> 100	–	–	–	–	–	–	–	–	–
COc1cc(C(SCc2ccccc2)SCc2ccccc2)ccc1O	–	> 10	> 10	–	> 10	> 10	> 10	> 10	> 10	> 10	–	–	–	–	–	–	–	–	–
O=C(Nc1cccc(-n2ccc3c(NC(=O)c4ccccc4)nccc32)c1)c1cc(N2CCOCC2)cc(C(F)(F)F)c1	> 100	> 29.8	–	> 100	> 100	0.651	0.472	–	> 100	–	0.0347	0.696	0.085	0.245	0.157	0.164	0.613	0.0332	0.125
CN1CC2CC(C1)c1cccc(=O)n1C2 (configuration not stated)	> 100	> 100	> 100	> 100	–	> 100	> 100	> 100	> 100	> 100	–	–	–	–	–	–	–	–	–
Cc1ccc2nc(Cl)c(/C=N/N3C(=O)/C(=C/c4ccc(N(C)C)cc4)N=C3c3ccccc3)cc2c1	–	> 100	92.6	> 100	> 100	> 100	> 100	> 100	> 100	> 100	–	–	–	–	–	–	–	–	–
Cc1c(F)c(N)c2c(=O)cc(-c3ccc(NC(=O)C(N)CCCN=C(N)N)c(F)c3)oc2c1F (configuration not stated)	> 73.8	> 100	> 100	> 50	63.6	> 59.6	> 100	> 78.9	–	97.1	–	–	–	–	–	–	–	–	–
CN1CCCCC(C(O)(c2ccccc2)c2ccccc2)C1=O (configuration not stated)	> 100	56.9	–	> 100	> 100	–	> 100	–	–	> 100	–	–	–	–	–	–	–	–	–
